Laboratory results from ChEMBL document CHEMBL1139379, “Design, structure-activity relationships and in vivo characterization of 4-amino-3-benzimidazol-2-ylhydroquinolin-2-ones: a novel class of receptor tyrosine kinase inhibitors” (J Med Chem, 2009).

Tests used:
[1] = Oral bioavailability in mouse at 20 mg/kg; type: ADME, organism-based; conditions: in vivo
[2] = Cmax in mouse at 20 mg/kg, po; type: ADME, organism-based; set-up: dose 20 mg/kg, route oral; conditions: in vivo
[3] = Inhibition of VEGF-mediated proliferation of HMVEC after 72 hrs; type: functional, cell-based; conditions: Homo sapiens
[4] = AUC in mouse at 20 mg/kg, po; type: ADME, organism-based; set-up: dose 20 mg/kg, route oral; conditions: plasma
[5] = Clearance in mouse at 5 mg/kg, iv; type: ADME, organism-based; set-up: dose 5 mg/kg, route intravenous; conditions: in vivo
[6] = Volume of distribution at steady state in mouse at 5 mg/kg, iv; type: ADME, organism-based; set-up: dose 5 mg/kg, route intravenous; conditions: in vivo, read-out: Vdss
[7] = Half life in mouse at 5 mg/kg, iv; type: ADME, organism-based; set-up: dose 5 mg/kg, route intravenous; conditions: in vivo
[8] = Oral bioavailability in rat at 20 mg/kg; type: ADME, organism-based; conditions: in vivo
[9] = Cmax in rat at 20 mg/kg, po; type: ADME, organism-based; set-up: dose 20 mg/kg, route oral; conditions: in vivo
[10] = AUC in rat at 20 mg/kg, po; type: ADME, organism-based; set-up: dose 20 mg/kg, route oral; conditions: plasma
[11] = Clearance in rat at 5 mg/kg, iv; type: ADME, organism-based; set-up: dose 5 mg/kg, route intravenous; conditions: in vivo
[12] = Volume of distribution at steady state in rat at 5 mg/kg, iv; type: ADME, organism-based; set-up: dose 5 mg/kg, route intravenous; conditions: in vivo, read-out: Vdss
[13] = Half life in rat at 5 mg/kg, iv; type: ADME, organism-based; set-up: dose 5 mg/kg, route intravenous; conditions: in vivo
[14] = organism: Mus musculus; test: Antiangiogenic activity in BDF1 mouse Matrigel model assessed as inhibition of bFGF-mediated angiogenesis; type: functional
[15] = tested on: Mus musculus; test: Antiangiogenic activity in BDF1 mouse Matrigel model assessed as inhibition of bFGF-mediated angiogenesis at 3 mg/kg, po for 8 days by colorimetric assay; type: functional; set-up: scale not given: the % may be the effect or the level left
[16] = Antitumor activity against VEGFR expressing human KM12L4A cells xenografted nude mouse assessed as tumor growth inhibition at 10 mg/kg/day, po; type: functional; conditions: read-out: TGI
[17] = Antitumor activity against PDGFRbeta expressing human KM12L4A cells xenografted nude mouse assessed as tumor growth inhibition at 30 mg/kg/day, po; type: functional; conditions: read-out: TGI
[18] = Antitumor activity against PDGFRbeta expressing human KM12L4A cells xenografted nude mouse assessed as tumor growth inhibition at 100 mg/kg/day, po; type: functional; conditions: read-out: TGI
[19] = tested on: DU-145; test: Antitumor activity against VEGFR expressing human DU145 cells xenografted nude mouse assessed as tumor growth inhibition at 10 mg/kg/day, po; type: functional; conditions: read-out: TGI
[20] = tested on: DU-145; test: Antitumor activity against PDGFRbeta expressing human DU145 cells xenografted nude mouse assessed as tumor growth inhibition at 30 mg/kg/day, po; type: functional; conditions: read-out: TGI
[21] = tested on: DU-145; test: Antitumor activity against FGFR expressing human DU145 cells xenografted nude mouse assessed as tumor growth inhibition at 100 mg/kg/day, po; type: functional; conditions: read-out: TGI
[22] = tested on: MV4-11; test: Antitumor activity against FLT3 ITD expressing human MV4-11 cells xenografted SCID-NOD mouse assessed as tumor growth inhibition at 1 mg/kg/day, po; type: functional; conditions: read-out: TGI
[23] = tested on: MV4-11; test: Antitumor activity against VEGFR expressing human MV4-11 cells xenografted SCID-NOD mouse assessed as tumor growth inhibition at 5 mg/kg/day, po; type: functional; conditions: read-out: TGI
[24] = tested on: MV4-11; test: Antitumor activity against cKit expressing human MV4-11 cells xenografted SCID-NOD mouse assessed as tumor growth inhibition at 10 mg/kg/day, po; type: functional; conditions: read-out: TGI
[25] = tested on: MV4-11; test: Antitumor activity against PDGFRbeta expressing human MV4-11 cells xenografted SCID-NOD mouse assessed as tumor growth inhibition at 30 mg/kg/day, po; type: functional; conditions: read-out: TGI
[26] = Antitumor activity against human KM12L4A cells xenografted nude mouse; type: functional
[27] = tested on: DU-145; test: Antitumor activity against human DU145 cells xenografted nude mouse; type: functional
[28] = tested on: MV4-11; test: Antitumor activity against human MV4-11 cells xenografted SCID-NOD mouse; type: functional

CN1CCN(c2ccc3nc(-c4c(N)c5c(F)cccc5[nH]c4=O)[nH]c3c2)CC1 [DOVITINIB]
bioavailability [1]: 77%
Cmax [2]: 670 ng/mL
EC50 [3]: 13 nM
AUC [4]: 6000 ng·h/mL
clearance [5]: 42 mL/min/kg
Vd [6]: 12 L/kg
half-life [7]: 2.7 h
bioavailability [8]: 73%
Cmax [9]: 480 ng/mL
AUC [10]: 5670 ng·h/mL
clearance [11]: 43 mL/min/kg
Vd [12]: 13 L/kg
half-life [13]: 3.5 h
ED50 [14]: 3 mg/kg
Activity [15]: 54%
inhibition in vivo at 10 mg/kg/day [16]: 44%
inhibition in vivo at 30 mg/kg/day [17]: 55%
inhibition in vivo at 100 mg/kg/day [18]: 95%
inhibition in vivo at 10 mg/kg/day [19]: 39%
inhibition in vivo at 30 mg/kg/day [20]: 70%
inhibition in vivo at 100 mg/kg/day [21]: 86%
inhibition in vivo at 1 mg/kg/day [22]: 23%
inhibition in vivo at 5 mg/kg/day [23]: 65%
inhibition in vivo at 10 mg/kg/day [24]: 92%
inhibition in vivo at 30 mg/kg/day [25]: 96%
ED50 [26]: 17 mg/kg
minimal effective dose ([26]; read-out: MED): 10 mg/kg
ED50 [27]: 23 mg/kg
minimal effective dose ([27]; read-out: MED): 30 mg/kg
ED50 [28]: 3 mg/kg
minimal effective dose ([28]; read-out: MED): 1 mg/kg
